Measurements reported in PubChem BioAssay AID256 (DTP/NCI, 2004).
Toxic doses and inconclusive results are not listed. How the source made its calls: active means survival T/C of 150% or more; inactive means T/C below 125% in these data.

Test system: CD2F1 mice, L1210 leukemia ip, survival T/C
Test: NCI In Vivo Anticancer Drug Screen. Data for tumor model L1210 Leukemia (intraperitoneal) in CD2F1 (CDF1) mice
Conditions: higher = longer survival
Method in brief: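 In this screen, transplantable tumors were grown in mice given either the compound or its vehicle. Results were expressed as the treated measurement relative to the control measurement.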

[1] = endpoint: mean survival time, dose: 50.0 mg/kg/injection, schedule: Q01DX009 (ip), vehicle: saline with Tween-80
[2] = endpoint: mean survival time, dose: 100.0 mg/kg/injection, schedule: Q01DX009 (ip), vehicle: saline with Tween-80
[3] = endpoint: mean survival time, dose: 100.0 mg/kg/injection, schedule: Q04DX003 (ip), vehicle: saline with Tween-80
[4] = endpoint: mean survival time, dose: 200.0 mg/kg/injection, schedule: Q04DX003 (ip), vehicle: saline with Tween-80
[5] = endpoint: mean survival time, dose: 400.0 mg/kg/injection, schedule: Q04DX003 (ip), vehicle: saline with Tween-80
[6] = endpoint: mean survival time, dose: 200.0 mg/kg/injection, schedule: Q01DX009 (ip), vehicle: saline with Tween-80
[7] = endpoint: mean survival time, dose: 400.0 mg/kg/injection, schedule: Q01DX009 (ip), vehicle: saline with Tween-80
[8] = endpoint: mean survival time, dose: 100.0 mg/kg/injection, schedule: Q01DX001 (ip), vehicle: saline
[9] = endpoint: mean survival time, dose: 200.0 mg/kg/injection, schedule: Q01DX001 (ip), vehicle: saline
[10] = endpoint: mean survival time, dose: 100.0 mg/kg/injection, schedule: Q04DX002 (ip), vehicle: saline with Tween-80
[11] = endpoint: mean survival time, dose: 200.0 mg/kg/injection, schedule: Q04DX002 (ip), vehicle: saline with Tween-80
[12] = endpoint: mean survival time, dose: 400.0 mg/kg/injection, schedule: Q04DX002 (ip), vehicle: saline with Tween-80

Measured: T/C

CCN(CC)CC(O)CNc1cc(C)nc(/N=C(\N)Nc2ccc(Cl)c(Cl)c2)n1 (centres undefined)
inactive: endpoint: mean survival time, dose: 6.25 mg/kg/injection, schedule: Q01DX009 (ip), vehicle: saline with Tween-80 98 % of control | endpoint: mean survival time, dose: 12.5 mg/kg/injection, schedule: Q01DX009 (ip), vehicle: saline with Tween-80 104 % of control | endpoint: mean survival time, dose: 25.0 mg/kg/injection, schedule: Q01DX009 (ip), vehicle: saline with Tween-80 106 % of control

CC(C)(CCC(=O)O)c1cccc(Cl)c1
inactive: [1] 96 % of control | [2] 93 % of control

CCCCCCCC(=O)/C=C/Sc1n[nH]c(=O)[nH]c1=O
inactive: endpoint: mean survival time, dose: 12.5 mg/kg/injection, schedule: Q01DX005 (ip), vehicle: distilled water + Tween-80 94 % of control | endpoint: mean survival time, dose: 25.0 mg/kg/injection, schedule: Q01DX005 (ip), vehicle: distilled water + Tween-80 102 % of control | endpoint: mean survival time, dose: 50.0 mg/kg/injection, schedule: Q01DX005 (ip), vehicle: distilled water + Tween-80 107 % of control

CCN(Cc1ccc(Cl)c(Cl)c1)c1ccc2nc(N)nc(N)c2c1C
inactive: endpoint: mean survival time, dose: 1.5 mg/kg/injection, schedule: Q01DX009 (ip), vehicle: water 97 % of control | endpoint: mean survival time, dose: 3.0 mg/kg/injection, schedule: Q01DX009 (ip), vehicle: water 106 % of control | endpoint: mean survival time, dose: 24.0 mg/kg/injection, schedule: Q01DX009 (ip), vehicle: water 101 % of control | endpoint: median survival time, dose: 1.5 mg/kg/injection, schedule: Q01DX009 (ip), vehicle: water 103 % of control | endpoint: median survival time, dose: 3.0 mg/kg/injection, schedule: Q01DX009 (ip), vehicle: water 111 % of control | endpoint: median survival time, dose: 6.0 mg/kg/injection, schedule: Q01DX009 (ip), vehicle: water 112 % of control

COc1cc(C)cc(O)c1C=O
inactive: [3] 100 % of control | [4] 100 % of control | [5] 100 % of control

COC(O)C1OC(c2ccccc2)OC2C(CO)OC(c3ccccc3)OC12 (centres undefined)
inactive: [2] 90 % of control | [6] 90 % of control | [7] 90 % of control

CC(O)C1OC(n2cnc3c(ncn3C3OC(C(C)O)C(O)C3O)c2=O)C(O)C1O (centres undefined)
inactive: endpoint: mean survival time, dose: 10.63 mg/kg/injection, schedule: Q01DX005 (ip), vehicle: water 102 % of control | endpoint: mean survival time, dose: 21.25 mg/kg/injection, schedule: Q01DX005 (ip), vehicle: water 98 % of control | endpoint: mean survival time, dose: 42.5 mg/kg/injection, schedule: Q01DX005 (ip), vehicle: water 102 % of control | endpoint: mean survival time, dose: 85.0 mg/kg/injection, schedule: Q01DX005 (ip), vehicle: water 101 % of control | endpoint: mean survival time, dose: 170.0 mg/kg/injection, schedule: Q01DX005 (ip), vehicle: water 108 % of control

CCCOc1ccc(/C=N\N=C\c2ccc(OCCC)cc2)cc1
inactive: [3] 89 % of control | [4] 89 % of control | [5] 91 % of control

O=NN1CCOC1=NCCCl
inactive: endpoint: mean survival time, dose: 3.12 mg/kg/injection, schedule: Q01DX001 (ip), vehicle: water 100 % of control | endpoint: mean survival time, dose: 6.25 mg/kg/injection, schedule: Q01DX001 (ip), vehicle: water 96 % of control | endpoint: mean survival time, dose: 12.5 mg/kg/injection, schedule: Q01DX001 (ip), vehicle: water 94 % of control | endpoint: mean survival time, dose: 25.0 mg/kg/injection, schedule: Q01DX001 (ip), vehicle: water 96 % of control | endpoint: mean survival time, dose: 50.0 mg/kg/injection, schedule: Q01DX001 (ip), vehicle: water 96 % of control | endpoint: mean survival time, dose: 100.0 mg/kg/injection, schedule: Q01DX001 (ip), vehicle: water 102 % of control | endpoint: mean survival time, dose: 200.0 mg/kg/injection, schedule: Q01DX001 (ip), vehicle: water 122 % of control

Cc1cc2c(cc1C)C(=O)C(N(C)C)=CC2=O
inactive: [2] 102 % of control | [6] 98 % of control | [7] 91 % of control

CC(=O)OC(c1ccccc1)(c1ccccc1)c1ccncc1
inactive: endpoint: mean survival time, dose: 100.0 mg/kg/injection, schedule: Q04DX003 (ip), vehicle: other 93 % of control | endpoint: mean survival time, dose: 200.0 mg/kg/injection, schedule: Q04DX003 (ip), vehicle: other 89 % of control | endpoint: mean survival time, dose: 400.0 mg/kg/injection, schedule: Q04DX003 (ip), vehicle: other 93 % of control

Cc1ccc(CO)cc1C
inactive: [1] 101 % of control | [2] 97 % of control | [6] 101 % of control

COc1ccc(S(=O)(=O)NCCN(C)C)cc1NC(C)=O
inactive: [8] 90 % of control | [9] 93 % of control | endpoint: mean survival time, dose: 400.0 mg/kg/injection, schedule: Q01DX001 (ip), vehicle: saline 100 % of control

CCCC(=O)/C=C\c1ccccc1
inactive: endpoint: mean survival time, dose: 50.0 mg/kg/injection, schedule: Q04DX002 (ip), vehicle: saline with Tween-80 102 % of control | [10] 102 % of control | [11] 91 % of control | [12] 94 % of control

[Cl][Pd][Cl]
inactive: endpoint: mean survival time, dose: 12.5 mg/kg/injection, schedule: Q01DX009 (ip), vehicle: saline sonified 95 % of control | endpoint: mean survival time, dose: 12.5 mg/kg/injection, schedule: Q04DX003 (ip), vehicle: saline with Tween-80 107 % of control | endpoint: mean survival time, dose: 25.0 mg/kg/injection, schedule: Q04DX003 (ip), vehicle: saline with Tween-80 103 % of control | endpoint: mean survival time, dose: 50.0 mg/kg/injection, schedule: Q04DX003 (ip), vehicle: saline with Tween-80 91 % of control

CCC(C)[N+](=O)[O-] (centres undefined)
inactive: endpoint: mean survival time, dose: 50.0 mg/kg/injection, schedule: Q01DX001 (ip), vehicle: saline 94 % of control | [8] 98 % of control | [9] 102 % of control

COc1ccc(C(=O)C(=O)c2ccccc2Cl)cc1
inactive: [10] 98 % of control | [11] 102 % of control | [12] 95 % of control

O=C(O)c1ccccc1C(=O)Nc1ccccc1C(F)(F)F
inactive: [2] 104 % of control | [3] 96 % of control | [6] 106 % of control | [4] 102 % of control | [7] 95 % of control | [5] 105 % of control

CCOC(=O)Nc1cc(Cl)c2nnn(C(=O)OCC)c2n1
inactive: endpoint: mean survival time, dose: 12.5 mg/kg/injection, schedule: Q01DX005 (ip), vehicle: water 105 % of control | endpoint: mean survival time, dose: 25.0 mg/kg/injection, schedule: Q01DX005 (ip), vehicle: water 98 % of control | endpoint: mean survival time, dose: 50.0 mg/kg/injection, schedule: Q01DX005 (ip), vehicle: water 96 % of control | endpoint: mean survival time, dose: 100.0 mg/kg/injection, schedule: Q01DX005 (ip), vehicle: water 105 % of control

CN(C)C(=O)c1cccc(COc2ccc(N)cc2Cl)c1
inactive: endpoint: mean survival time, dose: 50.0 mg/kg/injection, schedule: Q01DX009 (ip), vehicle: saline 113 % of control | [2] 90 % of control | endpoint: mean survival time, dose: 100.0 mg/kg/injection, schedule: Q01DX009 (ip), vehicle: saline 104 % of control | [6] 93 % of control | endpoint: mean survival time, dose: 200.0 mg/kg/injection, schedule: Q01DX009 (ip), vehicle: saline 105 % of control | [4] 87 % of control | [7] 95 % of control | [5] 89 % of control
